Data taken from patent US20080070867A1, “2-Imidazolone and 2-Imidazolidinone Heterocyclic Inhibitors of Tyrosine Phosphatases” (Metabasis Therapeutics, Inc., priority 2005, published 2008).

Biological target: T1, Human recombinant PTP-1B (Homo sapiens, UniProt P18031)
T1 construct: Human recombinant PTP-1B, containing amino acids 1-321, fused to GST enzyme; GST (glutathione S-transferase)
T1 sequence (P18031 1-321): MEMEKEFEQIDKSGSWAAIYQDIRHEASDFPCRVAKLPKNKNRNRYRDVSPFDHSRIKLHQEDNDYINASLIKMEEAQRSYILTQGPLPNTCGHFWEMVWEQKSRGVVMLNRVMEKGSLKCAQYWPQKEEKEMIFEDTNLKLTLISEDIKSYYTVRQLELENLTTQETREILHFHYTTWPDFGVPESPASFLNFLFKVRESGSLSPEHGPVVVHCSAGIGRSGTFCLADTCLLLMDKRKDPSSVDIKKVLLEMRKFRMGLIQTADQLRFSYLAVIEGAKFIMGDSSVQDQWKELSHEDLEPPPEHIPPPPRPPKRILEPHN
Experiment: Assay for PTP-1B Activity (pNPP substrate)
Format: biochemical
Conditions: human recombinant PTP-1B (1-321) GST fusion, 2 mM pNPP, pH 7.4, 30° C., 20 min; read-out: Activity Code (IC50 range)
How it was run: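 GST-fused human PTP-1B (aa 1-321) hydrolysed 2 mM pNPP in 50 mM HEPES pH 7.4, 100 mM NaCl, 2 mM EDTA, 3 mM DTT for 20 min at 30 °C, after a 2 min compound premix. K2CO3 stopped the reaction, with pNP read at 405 nm. Initial rate was plotted against inhibitor concentration.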

| SMILES | IC50 |
| --- | --- |
| O=c1n(Cc2ccccc2)ccn1Cc1ccc(C(F)(F)P(=O)(O)O)c(Br)c1 [Compound 71, {[4-(3-Benzyl-2-oxo-2,3-dihydro-imidazol-1-ylmethyl)-2-bromo-phenyl]-difluoro-methyl}-phosphonic acid] | 2.5 to 25 µM |
| CC(C)OC(=O)OC(C)OP(=O)(O)C(F)(F)c1ccc(Cn2c(-c3ccc(Cl)cc3)cn(Cc3ccccc3)c2=O)cc1Br (stereo not shown) [Compound 72, ({4-[3-Benzyl-5-(4-chloro-phenyl)-2-oxo-2,3-dihydro-imidazol-1-ylmethyl]-2-bromo-phenyl}-difluoro-methyl)-phosphonic acid mono-(1-isopropoxy-carbonyloxy-ethyl) ester] | 2.5 to 25 µM |
| CCOC(=O)C(C)(C)Oc1ccc(-c2cn(C3CC3)c(=O)n2Cc2ccc(C(F)(F)P(=O)(O)O)c(Br)c2)cc1 [Compound 73, 2-(4-{3-[3-Bromo-4-(difluoro-phosphono-methyl)-benzyl]-1-cyclopropyl-2-oxo-2,3-dihydro-1H-imidazol-4-yl}-phenoxy)-2-methyl-propionic acid ethyl ester] | 0.1 to 0.249 µM |
| CC(C)(Oc1ccc(-c2cn(C3CC3)c(=O)n2Cc2ccc(C(F)(F)P(=O)(O)O)c(Br)c2)cc1)C(=O)O [Compound 74, 2-(4-{3-[3-Bromo-4-(difluoro-phosphono-methyl)-benzyl]-1-cyclopropyl-2-oxo-2,3-dihydro-1H-imidazol-4-yl}-phenoxy)-2-methyl-propionic acid] | < 0.099 µM |
| CCOC(=O)n1cc(-c2ccc(C#N)cc2)n(Cc2ccc(C(F)(F)P(=O)(O)O)c(Br)c2)c1=O [Compound 75, 3-[3-Bromo-4-(difluoro-phosphono-methyl)-benzyl]-4-(4-cyano-phenyl)-2-oxo-2,3-dihydro-imidazole-1-carboxylic acid ethyl ester] | 0.1 to 0.249 µM |
| CC(C)(C)C(=O)OCOP(=O)(O)C(F)(F)c1ccc(Cn2c(-c3ccc(S(C)(=O)=O)cc3)cn(Cc3ccccc3)c2=O)cc1Br [Compound 76, 2,2-Dimethyl-propionic acid ({4-[3-benzyl-5-(4-methanesulfonyl-phenyl)-2-oxo-2,3-dihydro-imidazol-1-ylmethyl]-2-bromo-phenyl}-difluoro-methyl)-hydroxy-phosphinoyloxymethyl ester] | 0.25 to 2.5 µM |
| CC(C)(C)C(=O)OCOC(=O)COc1ccc(-c2cn(C3CC3)c(=O)n2Cc2ccc(C(F)(F)P(=O)(O)OCOC(=O)C(C)(C)C)c(Br)c2)cc1 [Compound 77, 2,2-Dimethyl-propionic acid 2-{4-[3-(3-bromo-4-{[(2,2-dimethyl-propionyloxy-methoxy)-hydroxy-phosphoryl]-difluoro-methyl}-benzyl)-1-cyclopropyl-2-oxo-2,3-dihydro-1H-imidazol-4-yl]-phenoxy}-acetoxymethyl ester] | 0.25 to 2.5 µM |
| N#Cc1ccc(-c2c[nH]c(=O)n2Cc2ccc(C(F)(F)P(=O)(O)O)c(Br)c2)cc1 [Compound 78, ({2-Bromo-4-[5-(4-cyano-phenyl)-2-oxo-2,3-dihydro-imidazol-1-ylmethyl]-phenyl}-difluoro-methyl)-phosphonic acid] | 0.1 to 0.249 µM |
| CC(C)OC(=O)OC(C)OP(=O)(O)C(F)(F)c1ccc(Cn2c(-c3ccc(S(C)(=O)=O)cc3)cn(Cc3ccccc3)c2=O)cc1Br (stereo not shown) [Compound 79, ({4-[3-Benzyl-5-(4-methanesulfonyl-phenyl)-2-oxo-2,3-dihydro-imidazol-1-ylmethyl]-2-bromo-phenyl}-difluoro-methyl)-phosphonic acid mono-(1-isopropoxy-carbonyloxy-ethyl) ester] | 0.1 to 0.249 µM |
| Cn1cc(-c2ccc(C(=O)OCOC(=O)C(C)(C)C)cc2)n(Cc2ccc(C(F)(F)P(=O)(O)OCOC(=O)C(C)(C)C)c(Br)c2)c1=O [Compound 80, 4-[3-(3-Bromo-4-{[(2,2-dimethyl-propionyloxy-methoxy)-hydroxy-phosphoryl]-difluoro-methyl}-benzyl)-1-methyl-2-oxo-2,3-dihydro-1H-imidazol-4-yl]-benzoic acid 2,2-dimethyl-propionyloxymethyl ester] | 2.5 to 25 µM |
| COC(=O)c1ccc(Cn2ccn(Cc3ccc(C(F)(F)P(=O)(O)O)c(Br)c3)c2=O)cc1 [Compound 81, 4-{3-[3-Bromo-4-(difluoro-phosphono-methyl)-benzyl]-2-oxo-2,3-dihydro-imidazol-1-ylmethyl}-benzoic acid methyl ester] | 0.25 to 2.5 µM |
| COC(=O)COc1ccc(Cn2ccn(Cc3ccc(C(F)(F)P(=O)(O)O)c(Br)c3)c2=O)cc1Cl [Compound 82, (4-{3-[3-Bromo-4-(difluoro-phosphono-methyl)-benzyl]-2-oxo-2,3-dihydro-imidazol-1-ylmethyl}-2-chloro-phenoxy)-acetic acid methyl ester] | 0.25 to 2.5 µM |
| O=C(O)COc1ccc(Cn2ccn(Cc3ccc(C(F)(F)P(=O)(O)O)c(Br)c3)c2=O)cc1Cl [Compound 83, (4-{3-[3-Bromo-4-(difluoro-phosphono-methyl)-benzyl]-2-oxo-2,3-dihydro-imidazol-1-ylmethyl}-2-chloro-phenoxy)-acetic acid] | 0.25 to 2.5 µM |
| CCCCCCCCCCCCCCCCOCCCOP(=O)(O)C(F)(F)c1ccc(Cn2c(-c3ccc(S(C)(=O)=O)cc3)c[nH]c2=O)cc1Br [Compound 84, ({2-Bromo-4-[5-(4-methanesulfonyl-phenyl)-2-oxo-2,3-dihydro-imidazol-1-ylmethyl]-phenyl}-difluoro-methyl)-phosphonic acid mono-(3-hexadecyloxy-propyl) ester] | 2.5 to 25 µM |
| O=C(O)c1ccc(Cn2ccn(Cc3ccc(C(F)(F)P(=O)(O)O)c(Br)c3)c2=O)cc1 [Compound 85, 4-{3-[3-Bromo-4-(difluoro-phosphono-methyl)-benzyl]-2-oxo-2,3-dihydro-imidazol-1-ylmethyl}-benzoic acid] | 0.25 to 2.5 µM |
| COC(=O)c1ccc(Cn2c(=O)n(Cc3ccc(C(F)(F)P(=O)(O)O)c(Br)c3)c3ccccc32)cc1 [Compound 86, 4-{3-[3-Bromo-4-(difluoro-phosphono-methyl)-benzyl]-2-oxo-2,3-dihydro-benzoimidazol-1-ylmethyl}-benzoic acid methyl ester] | 0.25 to 2.5 µM |
| O=c1[nH]ccn1Cc1ccc(C(F)(F)P(=O)(O)O)c(Br)c1 [Compound 87, {[2-Bromo-4-(2-oxo-2,3-dihydro-imidazol-1-ylmethyl)-phenyl]-difluoro-methyl}-phosphonic acid] | 2.5 to 25 µM |
| O=c1n(Cc2ccc(C(F)(F)P(=O)(O)O)c(Br)c2)ccn1Cc1ccc(C(F)(F)P(=O)(O)O)c(Br)c1 [Compound 88, [(2-Bromo-4-{3-[3-bromo-4-(difluoro-phosphono-methyl)-benzyl]-2-oxo-2,3-dihydro-imidazol-1-ylmethyl}-phenyl)-difluoro-methyl]-phosphonic acid] | < 0.099 µM |
| O=C1N(Cc2ccccc2)CCN1Cc1ccc(C(F)(F)P(=O)(O)O)c(Br)c1 [Compound 89, {[4-(3-Benzyl-2-oxo-imidazolidin-1-ylmethyl)-2-bromo-phenyl]-difluoro-methyl}-phosphonic acid] | 0.25 to 2.5 µM |
